According to PubChem BioAssay (NCI):
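Values below derive from 48-hour exposures of cells grown in 96-well plates, with endpoints linearly interpolated between the two concentrations bracketing the appropriate inhibition level. GI50 marks 50% less growth. The concentration for full growth arrest is given as TGI.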

Tests used:
Experiment in all cases: NCI anticancer screen, dose series, 48 h
[1] = test system: UACC-62 melanoma
[2] = test system: HCT-15 colon
[3] = test system: SK-MEL-2 melanoma
[4] = test system: RPMI-8226 leukemia
[5] = test system: OVCAR-3 ovarian
[6] = test system: SF-539 CNS
[7] = test system: OVCAR-4 ovarian
[8] = test system: PC-3 prostate
[9] = test system: SK-MEL-28 melanoma
[10] = test system: NCI-H460 lung

SMILES	GI50 [1] [µM]	TGI [1] [µM]	GI50 [2] [µM]	TGI [2] [µM]	GI50 [3] [µM]	TGI [3] [µM]	GI50 [4] [µM]	TGI [4] [µM]	GI50 [5] [µM]	TGI [5] [µM]	GI50 [6] [µM]	TGI [6] [µM]	GI50 [7] [µM]	TGI [7] [µM]	GI50 [8] [µM]	TGI [8] [µM]	GI50 [9] [µM]	TGI [9] [µM]	GI50 [10] [µM]	TGI [10] [µM]
O=C1OC(=O)C2C1C1(c3ccccc3)C(c3ccccc3)=C(c3ccccc3)C2(c2ccccc2)S1=O (configuration not stated)	49.4	> 100	> 100	> 100	> 100	> 100	53.1	> 100	> 100	> 100	> 100	> 100	> 100	> 100	87.7	> 100	> 100	> 100	> 100	> 100
O=C(NC(=S)Nc1ccc(Cl)cc1)c1ccccc1	> 50.4	> 100	> 100	> 100	> 100	> 100	> 100	> 100	> 70.6	> 100	> 90.7	> 100	> 46.5	> 100	> 100	> 100	> 100	> 100	> 100	> 100
O=C(NOCC1CC1)c1ccc(F)c(F)c1Nc1ccc(I)cc1Cl	0.064	1.41	1.57	> 32.7	0.166	2.05	1.97	9.48	2.62	7.54	2.24	9.73	1.81	17.7	3.03	16.5	0.0526	0.812	2.42	> 100
C[C@H]1CCC/C=C/[C@@H]2C[C@H](O)C[C@H]2[C@H](O)[C@@H](S(=O)CCN(C)C)CC(=O)O1 (some centres not stated)	0.0667	> 100	0.363	> 57.9	0.223	–	0.387	–	0.115	–	0.151	> 100	0.219	> 100	0.26	> 23.2	0.586	> 100	0.351	> 100
CC1(C)OCC(CO)(Nc2nc(N3CC3)nc(N3CC3)n2)CO1	–	14	–	45.8	–	40	–	> 100	–	49.4	–	27	–	41.9	–	> 100	–	53	–	29
C=C(CN1CCc2ccccc2C1)c1ccc(C(=O)Nc2ccc(N)cc2)cc1	22.1	> 100	32.2	> 100	24.4	> 100	2.5	19	12.7	48	19.3	57.4	40.7	> 100	3.08	48	24.9	72.5	27.7	> 100
CN(C)CCCNC(=O)c1cc(NC(=O)c2cc(NC(=O)c3cc(NC(=O)CCc4c[nH]c5ccccc45)cn3C)cn2C)cn1C	> 100	> 100	> 100	> 100	> 100	> 100	> 100	> 100	> 100	> 100	> 100	> 100	88.5	> 100	> 100	> 100	2.24	> 100	> 100	> 100
COc1cc(/C=C/C(=O)c2ccc(Cl)cc2)ccc1OS(=O)(=O)c1ccc(C)cc1	4.93	20.3	1.74	3.81	12.3	28.8	2.1	4.77	3.57	12.6	11.2	24	12.8	80.1	3.6	15.5	18.3	47.5	17.3	72.4
O=C(Oc1ccc(CCl)cc1)c1ccccc1	0.164	0.361	0.181	0.393	0.175	0.358	0.0615	0.288	0.164	0.304	0.152	0.286	0.159	0.313	0.15	0.332	0.159	0.315	0.238	1.09
COc1c(O)ccc2c1CN1CCc3cc4c(cc3C1C2)OCO4 (configuration not stated)	–	> 100	–	> 100	–	> 92.9	–	> 100	–	> 83.2	–	> 100	–	> 100	–	> 100	–	> 100	–	> 74.7
O=C1C(=O)c2ccccc2C(O)=C1C(CCc1ccccc1)C1=C(O)c2ccccc2C(=O)C1=O	–	34.5	–	> 100	–	> 100	–	> 100	–	> 100	–	> 100	–	> 100	–	> 100	–	> 100	–	> 100
C/C=C(\C)C(=O)O[C@H]1C=CC(=O)O[C@H]1CNC(=O)[C@H](C)O	16.1	30.5	15.6	32	20.1	51	21.3	45.7	17	30.9	19.4	35.4	17.3	36.1	24.5	79.4	17.4	32.4	28.2	94.2
CCOC(=O)Oc1c(OC)cc(C(=O)O[C@@H]2C[C@@H]3CN4CCc5c([nH]c6cc(OC)ccc56)[C@H]4C[C@@H]3[C@H](C(=O)OC)[C@H]2OC)cc1OC	6.89	20.3	2.86	13.2	12.1	28.3	2.23	10.8	4.62	16.1	4.18	14.8	4.72	19.8	4.92	33.8	6.32	18.8	3.8	16.6
